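Exposure lasted 48 hours, with cells grown in 96-well plates and compounds tested at five concentrations. Abbreviation: GI50, concentration required for 50% inhibition of growth. Definition used: TGI = concentration required for complete inhibition of growth.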
How the values were obtained:
Assay in all cases: NCI anticancer screen, dose series, 48 h
MCF7 breast = test system: MCF7 breast
HT29 colon = test system: HT29 colon
ACHN renal = test system: ACHN renal
SN12C renal = test system: SN12C renal
HOP-92 NSCLC = test system: HOP-92 NSCLC
MDA-MB-231 breast = test system: MDA-MB-231 breast
HOP-62 NSCLC = test system: HOP-62 NSCLC
OVCAR-4 ovarian = test system: OVCAR-4 ovarian
T-47D breast = test system: T-47D breast
SK-OV-3 ovarian = test system: SK-OV-3 ovarian
MDA-MB-468 breast = test system: MDA-MB-468 breast
NCI-H226 lung = test system: NCI-H226 lung
BT-549 breast = test system: BT-549 breast
UO-31 renal = test system: UO-31 renal
K-562 leukemia = test system: K-562 leukemia
SNB-19 CNS = test system: SNB-19 CNS
M14 melanoma = test system: M14 melanoma
TK-10 renal = test system: TK-10 renal
MDA-MB-435 = test system: MDA-MB-435
HS 578T breast = test system: HS 578T breast
PC-3 prostate = test system: PC-3 prostate
786-0 renal = test system: 786-0 renal
HCT-15 colon = test system: HCT-15 colon
NCI-H460 lung = test system: NCI-H460 lung
LOX IMVI melanoma = test system: LOX IMVI melanoma
NCI/ADR-RES ovarian = test system: NCI/ADR-RES ovarian
CCRF-CEM leukemia = test system: CCRF-CEM leukemia
RXF 393 renal = test system: RXF 393 renal
NCI-H522 lung = test system: NCI-H522 lung
HCC-2998 colon = test system: HCC-2998 colon
U251 CNS = test system: U251 CNS
SR leukemia = test system: SR leukemia
A549 NSCLC = test system: A549 NSCLC
IGROV1 ovarian = test system: IGROV1 ovarian
HCT-116 colon = test system: HCT-116 colon
SK-MEL-2 melanoma = test system: SK-MEL-2 melanoma
MOLT-4 leukemia = test system: MOLT-4 leukemia
OVCAR-3 ovarian = test system: OVCAR-3 ovarian
OVCAR-5 ovarian = test system: OVCAR-5 ovarian
NCI-H23 lung = test system: NCI-H23 lung
DU-145 prostate = test system: DU-145 prostate
SF-539 CNS = test system: SF-539 CNS
SF-268 CNS = test system: SF-268 CNS
SNB-75 CNS = test system: SNB-75 CNS
CAKI-1 renal = test system: CAKI-1 renal
UACC-257 melanoma = test system: UACC-257 melanoma
EKVX NSCLC = test system: EKVX NSCLC
MALME-3M melanoma = test system: MALME-3M melanoma
HL-60(TB) leukemia = test system: HL-60(TB) leukemia
RPMI-8226 leukemia = test system: RPMI-8226 leukemia
SK-MEL-5 melanoma = test system: SK-MEL-5 melanoma
SW-620 colon = test system: SW-620 colon
UACC-62 melanoma = test system: UACC-62 melanoma
OVCAR-8 ovarian = test system: OVCAR-8 ovarian
KM12 colon = test system: KM12 colon
COLO 205 colon = test system: COLO 205 colon
SK-MEL-28 melanoma = test system: SK-MEL-28 melanoma
A498 renal = test system: A498 renal

O=C(CSc1nnc(-c2ccc(-c3nc4ccc(Cl)cc4[nH]3)cc2)o1)Nc1ccccc1 was tested, and the GI50 (MCF7 breast) was 7.37 µM, the TGI (MCF7 breast) was > 100 µM and the GI50 (HT29 colon) was 4.5 µM. It also gave a TGI (HT29 colon) of 53.6 µM, a GI50 (ACHN renal) of 2.64 µM and a TGI (ACHN renal) of 11 µM. The GI50 (SN12C renal) was 3.26 µM, the TGI (SN12C renal) was 13.8 µM and the GI50 (HOP-92 NSCLC) was 2.33 µM. The TGI (HOP-92 NSCLC) was 8.78 µM, the GI50 (MDA-MB-231 breast) was 3.26 µM and the TGI (MDA-MB-231 breast) was 11.9 µM. It also gave a GI50 (HOP-62 NSCLC) of 2.18 µM, a TGI (HOP-62 NSCLC) of 5.54 µM and a GI50 (OVCAR-4 ovarian) of 3.02 µM. It also gave a TGI (OVCAR-4 ovarian) of 11 µM, a GI50 (T-47D breast) of 17.1 µM and a TGI (T-47D breast) of 41.4 µM. The GI50 (SK-OV-3 ovarian) was 3.97 µM, the TGI (SK-OV-3 ovarian) was 14.9 µM and the GI50 (MDA-MB-468 breast) was 15.6 µM. For the same compound, the TGI (MDA-MB-468 breast) was 30 µM, the GI50 (NCI-H226 lung) was 1.87 µM and the TGI (NCI-H226 lung) was 5.28 µM. For the same compound, the GI50 (BT-549 breast) was 2.98 µM, the TGI (BT-549 breast) was 17 µM and the GI50 (UO-31 renal) was 10.8 µM. For the same compound, the TGI (UO-31 renal) was 22.9 µM, the GI50 (K-562 leukemia) was 3.58 µM and the TGI (K-562 leukemia) was > 100 µM. For the same compound, the GI50 (SNB-19 CNS) was 3.26 µM, the TGI (SNB-19 CNS) was 12.2 µM and the GI50 (M14 melanoma) was 3.39 µM. The TGI (M14 melanoma) was 14.1 µM, the GI50 (TK-10 renal) was 20.9 µM and the TGI (TK-10 renal) was 39 µM. It also gave a GI50 (MDA-MB-435) of 2.17 µM, a TGI (MDA-MB-435) of 7.11 µM and a GI50 (HS 578T breast) of 2.92 µM. It also gave a TGI (HS 578T breast) of 13.9 µM, a GI50 (PC-3 prostate) of 1.82 µM and a TGI (PC-3 prostate) of 5.04 µM. The GI50 (786-0 renal) was 1.52 µM, the TGI (786-0 renal) was 3.44 µM and the GI50 (HCT-15 colon) was 8.35 µM. The TGI (HCT-15 colon) was > 100 µM, the GI50 (NCI-H460 lung) was 0.9 µM and the TGI (NCI-H460 lung) was 2.97 µM. For the same compound, the GI50 (LOX IMVI melanoma) was 1.83 µM, the TGI (LOX IMVI melanoma) was 4.48 µM and the GI50 (NCI/ADR-RES ovarian) was 9.04 µM. The TGI (NCI/ADR-RES ovarian) was 43.5 µM, the GI50 (CCRF-CEM leukemia) was 7.3 µM and the TGI (CCRF-CEM leukemia) was 68.8 µM. For the same compound, the GI50 (RXF 393 renal) was 2.38 µM, the TGI (RXF 393 renal) was 6.52 µM and the GI50 (NCI-H522 lung) was 2.74 µM. For the same compound, the TGI (NCI-H522 lung) was 10.6 µM, the GI50 (HCC-2998 colon) was 32.8 µM and the TGI (HCC-2998 colon) was > 100 µM. The GI50 (U251 CNS) was 4.54 µM, the TGI (U251 CNS) was 17.9 µM and the GI50 (SR leukemia) was 16.3 µM. The TGI (SR leukemia) was > 100 µM, the GI50 (A549 NSCLC) was 2.57 µM and the TGI (A549 NSCLC) was 11.3 µM. It also gave a GI50 (IGROV1 ovarian) of 13.5 µM, a TGI (IGROV1 ovarian) of 28.5 µM and a GI50 (HCT-116 colon) of 3.95 µM. The TGI (HCT-116 colon) was 41.1 µM, the GI50 (SK-MEL-2 melanoma) was 14.9 µM and the TGI (SK-MEL-2 melanoma) was 30.5 µM. The GI50 (MOLT-4 leukemia) was 8.63 µM, the TGI (MOLT-4 leukemia) was > 100 µM and the GI50 (OVCAR-3 ovarian) was 3.3 µM. It also gave a TGI (OVCAR-3 ovarian) of 11.3 µM, a GI50 (OVCAR-5 ovarian) of 7.42 µM and a TGI (OVCAR-5 ovarian) of 27.2 µM. For the same compound, the GI50 (NCI-H23 lung) was 3.04 µM, the TGI (NCI-H23 lung) was 10.1 µM and the GI50 (DU-145 prostate) was 2.44 µM. It also gave a TGI (DU-145 prostate) of 5.48 µM, a GI50 (SF-539 CNS) of 2.24 µM and a TGI (SF-539 CNS) of 5.74 µM. For the same compound, the GI50 (SF-268 CNS) was 2.44 µM, the TGI (SF-268 CNS) was 6.71 µM and the GI50 (SNB-75 CNS) was 1.65 µM. It also gave a TGI (SNB-75 CNS) of 4.8 µM, a GI50 (CAKI-1 renal) of 1.9 µM and a TGI (CAKI-1 renal) of 3.89 µM. It also gave a GI50 (UACC-257 melanoma) of 5.91 µM, a TGI (UACC-257 melanoma) of 21.8 µM and a GI50 (EKVX NSCLC) of 4.86 µM. The TGI (EKVX NSCLC) was 25.6 µM, the GI50 (MALME-3M melanoma) was 1.99 µM and the TGI (MALME-3M melanoma) was 5.34 µM. The GI50 (HL-60(TB) leukemia) was 16.4 µM, the TGI (HL-60(TB) leukemia) was > 100 µM and the GI50 (RPMI-8226 leukemia) was 15.5 µM. The TGI (RPMI-8226 leukemia) was > 100 µM, the GI50 (SK-MEL-5 melanoma) was 3.72 µM and the TGI (SK-MEL-5 melanoma) was 14.5 µM. For the same compound, the GI50 (SW-620 colon) was 3.54 µM, the TGI (SW-620 colon) was 15.9 µM and the GI50 (UACC-62 melanoma) was 6.71 µM. For the same compound, the TGI (UACC-62 melanoma) was 19.5 µM, the GI50 (OVCAR-8 ovarian) was 3.88 µM and the TGI (OVCAR-8 ovarian) was 18 µM. It also gave a GI50 (KM12 colon) of 8.4 µM, a TGI (KM12 colon) of 27.4 µM and a GI50 (COLO 205 colon) of 14.9 µM. The TGI (COLO 205 colon) was 41.9 µM, the GI50 (SK-MEL-28 melanoma) was 2.52 µM and the TGI (SK-MEL-28 melanoma) was 7.01 µM. The GI50 (A498 renal) was 15.2 µM and the TGI (A498 renal) was 28.5 µM.
